Measurements: patent US20240269135A1, “METHODS OF TREATING BREAST CANCER” (ASTRAZENECA AB, priority 2021, published 2024)

Key:
[1] = OlympiA safety analysis: adverse events, blood transfusions; format: in vivo
Method: Efficacy analyses were based on the intention-to-treat (ITT) population. Survival functions were estimated by Kaplan-Meier method. The stratified Cox proportional-hazards model was used to estimate the hazard ratio and confidence intervals, the comparison of survival between treatment arms was tested by stratified log-rank test. […] Safety was assessed in the population who received at least one dose of study medication.
Adverse events of special interest included pneumonitis, radiation pneumonitis, myelodysplastic syndrome (MDS)/AML, and new primary malignancy other than AML/MDS.

[2] = test system: metastatic HER2-negative breast cancer patients with gBRCA-P/LP variants; conditions: 45% received capecitabine as comparator; cited from earlier work
[3] = OlympiA exposure to study treatment, dose intensity, dose reductions and treatment discontinuations; format: in vivo, human; conditions: safety analysis set; 300 mg bd, N = 911
Method: A total of 1815 patients (911 in the olaparib-group and 904 in the placebo-group) were included in the safety analysis. The median number of days at 300 mg twice-daily protocol dose was 338 with percentage of intended dose being 94.8% in the olaparib-group, and 358 days and 98.9% in the placebo-group (Tables S11 to S13 in the Supplementary Appendix). Early treatment discontinuations, including discontinuations due to recurrence, occurred in 236 (25.9%) of the olaparib-group and 187 (20.7%) of the placebo-group (Figure S4 in the Supplementary Appendix).
In the olaparib-group, 228 patients (25.0%) required a dose reduction compared to 47 (5.2%) in the placebo-group. Adverse events requiring permanent discontinuation of the trial drug occurred in 90 patients (9.9%) in the olaparib-group and 38 patients (4.2%) in the placebo-group. […] (Table S15, S16 in the Supplementary Appendix). […] Any differences between the treatment arms are not considered clinically significant (Figure S5 in the Supplementary Appendix).

[4] = olaparib group, safety analysis set
[5] = safety analysis set, olaparib n=911
[6] = safety analysis set, olaparib n=911, listed as olaparib
[7] = safety analysis set, 300 mg bd, N = 911
[8] = treatment month: >=1-2 months, 300 mg bd, N = 911
[9] = treatment month: >=2-3 months, 300 mg bd, N = 911
[10] = treatment month: >=3-4 months, 300 mg bd, N = 911
[11] = treatment month: >=4-5 months, 300 mg bd, N = 911
[12] = treatment month: >=5-6 months, 300 mg bd, N = 911
[13] = treatment month: >=6-7 months, 300 mg bd, N = 911
[14] = treatment month: >=7-8 months, 300 mg bd, N = 911
[15] = treatment month: >=8-9 months, 300 mg bd, N = 911
[16] = treatment month: >=9-10 months, 300 mg bd, N = 911
[17] = treatment month: >=10-11 months, 300 mg bd, N = 911
[18] = treatment month: >=11 months, 300 mg bd, N = 911
[19] = treatment month: Up to month 1, 300 mg bd, N = 911

Which “anemia leading to discontinuation of study drug” value [1, 4] does the source give for `O=C(c1cc(Cc2n[nH]c(=O)c3ccccc23)ccc1F)N1CCN(C(=O)C2CC2)CC1` [Olaparib, 4-[(3-{[4-(cyclopropane-carbonyl)piperazine-1-yl]carbonyl}-4-fluorophenyl)methyl]-2H-phthalazin-1-one] here?
Its value is 1.8%.

And the “fatigue leading to discontinuation of study drug” value [1, 4]?
Its value is 1.3%.

And the “nausea leading to discontinuation of study drug” value [1, 4]?
The value was 2.0%.

What about the “neutrophil count decreased leading to discontinuation of study drug” value [1, 4] of the same molecule?
Its value is 1%.

And the “Number of patients with only 1 transfusion” value ([1]; safety analysis set, olaparib N=911)?
Its value is 4.1%.

What about the “Patients with at least one blood transfusion” value ([1]; safety analysis set, olaparib N=911, up to 30 days after last dose) of the same molecule?
The value was 5.8%.

And the “Neutrophil count decreased (neutropenia), Grade ≥3” value [1, 5]?
The value was “(4.8) %”.

What about the “Neutrophil count decreased, Grade ≥3” value [1, 5] of the same molecule?
The value was 44 no.

And the “White blood cell count decreased (leukopenia), Grade ≥3” value [1, 5]?
The value was “(3.0) %”.

What about the “White blood cell count decreased, Grade ≥3” value [1, 5] of the same molecule?
Its value is 27 no.

What about the “Anemia, Grade ≥3” value [1, 6] of the same molecule?
Its value is 8.7%.

What about the “Fatigue, Grade ≥3” value [1, 6] of the same molecule?
The value was 1.8%.

And the “Neutrophil count decreased (neutropenia), Grade ≥3” value [1, 6]?
Its value is 4.8%.

And the “White blood cell count decreased (leukopenia), Grade ≥3” value [1, 6]?
Its value is 3.0%.

And the “AE leading to permanent discontinuation of treatment: Abdominal pain upper” value [1, 7]?
The value was 1 (0.1) no. of patients (%).

And the “AE leading to permanent discontinuation of treatment: Anaemia” value [1, 7]?
Its value is 16 (1.8) no. of patients (%).

And the “AE leading to permanent discontinuation of treatment: Arthralgia” value [1, 7]?
Its value is 1 (0.1) no. of patients (%).

What about the “AE leading to permanent discontinuation of treatment: Breast cancer” value [1, 7] of the same molecule?
Its value is 1 (0.1) no. of patients (%).

And the “AE leading to permanent discontinuation of treatment: Decreased appetite” value [1, 7]?
Its value is 2 (0.2) no. of patients (%).

What about the “AE leading to permanent discontinuation of treatment: Diarrhoea” value [1, 7] of the same molecule?
Its value is 3 (0.3) no. of patients (%).

What about the “AE leading to permanent discontinuation of treatment: Dizziness” value [1, 7] of the same molecule?
The value was 2 (0.2) no. of patients (%).

And the “AE leading to permanent discontinuation of treatment: Drug hypersensitivity” value [1, 7]?
Its value is 3 (0.3) no. of patients (%).

And the “AE leading to permanent discontinuation of treatment: Fatigue” value [1, 7]?
Its value is 12 (1.3) no. of patients (%).

What about the “AE leading to permanent discontinuation of treatment: Headache” value [1, 7] of the same molecule?
Its value is 7 (0.8) no. of patients (%).

What about the “AE leading to permanent discontinuation of treatment: Nausea” value [1, 7] of the same molecule?
The value was 18 (2.0) no. of patients (%).

And the “AE leading to permanent discontinuation of treatment: Neutrophil count decreased” value [1, 7]?
Its value is 9 (1.0) no. of patients (%).

And the “AE leading to permanent discontinuation of treatment: Pruritus” value [1, 7]?
The value was 3 (0.3) no. of patients (%).

What about the “AE leading to permanent discontinuation of treatment: Vomiting” value [1, 7] of the same molecule?
The value was 7 (0.8) no. of patients (%).

What about the “AE leading to permanent discontinuation of treatment: White blood cell count decreased” value [1, 7] of the same molecule?
The value was 6 (0.7) no. of patients (%).

What about the “Any AE leading to permanent discontinuation” value [1, 7] of the same molecule?
Its value is 90 (9.9) no. of patients (%).

And the “lymphopenia, grade 3 or higher” value ([1]; safety analysis, olaparib-group)?
The value was 1.2%.

And the “Blood transfusions over time, Total no. of transfusions” value [1, 8]?
The value was 2.

What about the “Blood transfusions over time, no. of patients (%)” value [1, 8] of the same molecule?
Its value is 2 (0.2) no. of patients (%).

And the “Blood transfusions over time, Total no. of transfusions” value [1, 9]?
The value was 22.

What about the “Blood transfusions over time, no. of patients (%)” value [1, 9] of the same molecule?
The value was 21 (2.3) no. of patients (%).

What about the “Blood transfusions over time, Total no. of transfusions” value [1, 10] of the same molecule?
Its value is 10.

What about the “Blood transfusions over time, no. of patients (%)” value [1, 10] of the same molecule?
The value was 8 (0.9) no. of patients (%).

What about the “Blood transfusions over time, Total no. of transfusions” value [1, 11] of the same molecule?
Its value is 5.

What about the “Blood transfusions over time, no. of patients (%)” value [1, 11] of the same molecule?
Its value is 5 (0.5) no. of patients (%).

And the “Blood transfusions over time, Total no. of transfusions” value [1, 12]?
Its value is 8.

What about the “Blood transfusions over time, no. of patients (%)” value [1, 12] of the same molecule?
Its value is 7 (0.8) no. of patients (%).

What about the “Blood transfusions over time, Total no. of transfusions” value [1, 13] of the same molecule?
The value was 4.

And the “Blood transfusions over time, no. of patients (%)” value [1, 13]?
Its value is 4 (0.4) no. of patients (%).

And the “Blood transfusions over time, Total no. of transfusions” value [1, 14]?
The value was 8.

And the “Blood transfusions over time, no. of patients (%)” value [1, 14]?
The value was 8 (0.9) no. of patients (%).

What about the “Blood transfusions over time, Total no. of transfusions” value [1, 15] of the same molecule?
Its value is 3.

What about the “Blood transfusions over time, no. of patients (%)” value [1, 15] of the same molecule?
Its value is 3 (0.3) no. of patients (%).

And the “Blood transfusions over time, Total no. of transfusions” value [1, 16]?
The value was 2.

What about the “Blood transfusions over time, no. of patients (%)” value [1, 16] of the same molecule?
Its value is 2 (0.2) no. of patients (%).

And the “Blood transfusions over time, Total no. of transfusions” value [1, 17]?
Its value is 3.

And the “Blood transfusions over time, no. of patients (%)” value [1, 17]?
Its value is 3 (0.3) no. of patients (%).

And the “Blood transfusions over time, Total no. of transfusions” value [1, 18]?
Its value is 5.

And the “Blood transfusions over time, no. of patients (%)” value [1, 18]?
The value was 5 (0.5) no. of patients (%).

And the “Blood transfusions over time, Total no. of transfusions” value [1, 19]?
Its value is 2.

What about the “Blood transfusions over time, no. of patients (%)” value [1, 19] of the same molecule?
Its value is 2 (0.2) no. of patients (%).

And the progression-free-survival versus chemotherapy [2]?
The progression-free-survival versus chemotherapy was “more effective than chemotherapy”.

And the “Number of patients with a dose reduction: 1 dose reduction (%)” value [3]?
The value was 170 (18.7) patients (%).

And the “Number of patients with a dose reduction: 2 dose reductions (%)” value [3]?
Its value is 57 (6.3) patients (%).

And the “Number of patients with a dose reduction: 3 or more dose reductions (%)” value [3]?
The value was 1 (0.1) patients (%).

And the “Patients with a dose reduction (%)” value [3]?
Its value is 228 (25.0) patients (%).

What about the “Patients with no dose reduction (%)” value [3] of the same molecule?
Its value is 683 (75.0) patients (%).

And the “Reason for reduction: Administrative reasons (%)” value [3]?
The value was 2 (0.2) patients (%).

And the “Reason for reduction: Adverse event (%)” value [3]?
Its value is 222 (24.4) patients (%).

And the “Reason for reduction: Dosing error (%)” value [3]?
The value was 6 (0.7) patients (%).

What about the “Reason for reduction: Other (%)” value [3] of the same molecule?
The value was 0 (0.0) patients (%).

And the “Total number of dose reductions” value [3]?
The value was 287.
